Data: US20180201594A1, “Compound pac-1 or salt thereof and pharmaceutical composition comprising same” (priority 2015, published 2018)
Converted amounts (≈) assume the structure as drawn.

What was measured:
[1] = test system: HGC-27 cells; assay: Three-dimensional migration (Transwell assay), HGC-27; assay type: cell-based; settings: for Cell number (transmembrane cells): 24 h, n = 9
Method: Starved cells were digested and collected, which were suspended in serum-free medium. The cell intensity was adjusted into 3×10^5 s cells/mL. 100 μL of the cell suspension was added into the upper chamber and 700 μL of medium with 10% serum to the lower chamber per well. According to the experimental design, 50 μL serum-free medium was added per well for the control group, 50 μL of drug-containing serum-free medium was added for the administration groups. They were continued to be cultured in the incubator for another 24 h. The upper chamber was taken, with methanol fixation for 30 min, dyed with Giemsa stain for 30 min, rinsed with clean water twice. The cells on the bottom membrane surface of the upper chamber were carefully wiped off with a wet cotton swab, dried in the air. With the bottom up, they were transferred onto glass slide and sealed with neutral gum. Under the microscope, nine random fields were taken and the transmembrane cells therein were counted. The average values were statistically calculated.

[2] = test system: ICR mice; assay: in vivo; assay type: in vivo
Method: (§1) Experimental material: ZYS-1
(§2) Experimental animals and feeding conditions: ICR mice, half male and half female. Body weight 20±2 g, provided by Beijing Weitonglihua Experimental Animal Technology Co., Ltd., SPF grade feeding, certificate: SCXK (Beijing) 2006-0009. Particulate feed for mouse breeding was provided by Beijing Ke'ao Xieli Feed Co., Ltd. Animals were housed in barrier-level (Grade 2) animal lab in Beijing Anzhen Hospital, fluorescent lighting, 12 h light and dark cycle, room temperature 22˜24 ? , humidity 40-47%, air supply 10-12 times/h, Laboratory license number: SYXK (Beijing) 2005-0028. Mice were housed in clear plastic boxes with 5 per cage separated by gender.
(§3) Preparation method of test drug: A white powder of ZYS-1 was placed in a mortar to be finely ground. The drug was accurately weighed before use, which was formulated with 0.5% CMC-Na to reach the desired concentration.
(§4) Animals grouping: After fasting (except for water) for 11 h, according to body weight, animals were randomly divided into groups of 10 with 5 males and 5 females. There were 8 groups in total. […]. One-time intragastric administration was used in the experiment. The negative control group was orally administered an equal volume of 0.5% CMC-Na. The animals started feeding at 3 hours after administration.
(§5) Observed indicators: immediately after administration, the observation of the responses of the animals to drugs (such as: general performance, respiration, activity, with or without convulsions, righting reflex, pain reflex, response to external stimuli and other indicators) was started. After observing and recording the symptom of toxic reaction, the time and duration of toxicity, recovery time, and the time of animal death. After the animal was dead, it was immediately grossly dissected, visually observing each of the main organs (heart, liver, spleen, lung and kidney, stomach) to see if there was congestion, increased volume, hardens, discoloration. The survival animals were observed and recorded day by day whether there was delayed toxicity reaction and delayed death within 7 days, and weigh and feed the animals once every 2 days. After finishing the 7 day's observation, the survival animals were grossly dissected and the situations of the main organs were observed. LD50 was calculated according to the number of animal deaths in each group.

[3] = in vivo; assay type: in vivo; settings: both sexes, ICR, mouse, in vivo, po
Method: as §1, §2, §3, §4, §5

[4] = test system: Murine Lewis lung carcinoma cell line; assay: Spontaneous metastatic cancer in mice (Lewis lung carcinoma); settings: for Inhibition rate of metastasis loci / Metastasis rate / Number of lung (metastasis loci) / Tumor weight / tumor inhibition rate: intragastric administration
Method: The tumors growed to 1000 mm^3 and then were randomly divided into groups for adminstration, the groups were treated after three weeks. A total of 4 groups including ZYS-1 high, medium and low (100, 50, 25 mg/kg/d, intragastric administration) and positive control (gefitinib 100 mg/kg/d, intragastric administration) groups were set. The efficacy of ZYS-1 was evaluated in terms of general survival status (food intake, activity, hair etc.), tumor inhibition rate and metastasis inhibition rate.
The curve of tumor growth was plotted. On the next day after completing the treatment cycle, the animal was weighed. After collecting the blood, the animal was sacrificed. The tumor tissue was stripped, weighed, and the tumor inhibition rate was calculated. Store at −80 ? .
Metastasis rate=Number of mice with metastasis/Total number of mice×100%
Inhibition rate of metastasis loci=(average number of metastasis loci in the control group−average number of metastasis loci in the experimental group)/average number of metastasis loci in the control group×100%

[5] = Solubility comparison of ZYS-1 and PAC-1 needle crystal (HPLC); assay type: physicochemical; settings: room temperature
Method: The appropriate amounts of ZYS-1 and PAC-1 needle crystal were dissolved into the appropriate amount of methanol, absolute ethanol, 95% ethanol, acetonitrile, ethyl ether, ethyl acetate, propanol, acetone, respectively, and sonicated for 1 hour, then left at room temperature for 24 hours to obtain the oversaturated solution. After centrifugation at 4000 r/min for 5 min, the supernatant was diluted appropriately and filtered through a 0.45 μm needle filter. The concentration was determined by HPLC and the solubility was calculated.

[6] = Homo sapiens, HGC-27, 24 h, read-out: Inhibition Rate
[7] = both, ICR, mouse, in vivo, 7 days
[8] = one-time intragastric administration, mice

In the case of `C=CCc1cccc(/C=N/NC(=O)CN2CCN(Cc3ccccc3)CC2)c1O` [ZYS-1, 1-Piperazineacetic acid, 4-(phenylmethyl)-2-[[2-hydroxy-3-(2-propen-1-yl)phenyl]methylene]], the “Cell number (transmembrane cells)” value ([1]; 2 μM) was 33.00 ± 10.00, the “Cell number (transmembrane cells)” value ([1]; 4 μM) was 26.30 ± 13.37 and the “Cell number (transmembrane cells)” value ([1]; 8 μM) was 22.44 ± 9.82. For the same molecule, the inhibition at 2 µM [1, 6] was 24.6%, the inhibition at 4 µM [1, 6] was 39.9% and the inhibition at 8 µM [1, 6] was 48.7%. The 0% mortality dose [2, 7] was 343 mg/kg, the “non-significant toxic reaction dose” value [2, 7] was 343 mg/kg and the “neurotoxicity, ZYS-1 compared with PAC-1” value ([2]; both, ICR, mouse, in vivo, po, 7 days) was “Comparing the experimental results of acute toxicity of ZYS-1 and PAC-1, it can be seen that ZYS-1 has lower neurotoxicity”. For the same molecule, the “time for most survival animals to return to normal after administration” value [2, 8] was no more than 12 h, the “time of death after administration (mainly)” value [2, 8] was no more than 6 h and the LD50 at 7 days ([3]; LD50 95% confidence limit) was 1090 to 2290 mg/kg. For the same molecule, the LD50 at 7 days ([3]; LD50 dose) was 1670 mg/kg, the “Inhibition rate of metastasis loci” value ([4]; 25 mg/kg/d) was 54.68% and the Metastasis rate ([4]; 25 mg/kg/d) was 100%. The “Number of lung (metastasis loci)” value ([4]; 25 mg/kg/d) was 6.3 ± 3.3, the Tumor weight ([4]; 25 mg/kg/d) was 1.9579 ± 0.8346 g and the tumor inhibition rate ([4]; 25 mg/kg/d) was 50.63%. The “Inhibition rate of metastasis loci” value ([4]; 50 mg/kg/d) was 61.15%, the Metastasis rate ([4]; 50 mg/kg/d) was 100% and the “Number of lung (metastasis loci)” value ([4]; 50 mg/kg/d) was 5.4 ± 2.6. For the same molecule, the Tumor weight ([4]; 50 mg/kg/d) was 1.5844 ± 0.8288 g, the tumor inhibition rate ([4]; 50 mg/kg/d) was 60.05% and the Metastasis rate ([4]; 100 mg/kg/d) was 100%. The “Number of lung (metastasis loci)” value ([4]; 100 mg/kg/d) was 3.8 ± 1.9, the Tumor weight ([4]; 100 mg/kg/d) was 1.0209 ± 0.7332 g and the tumor inhibition rate ([4]; 100 mg/kg/d) was 74.26%. The “Hair Condition” value ([4]; high and medium dose (100, 50 mg/kg/d), tumor-bearing mice) was “shiny coat”, the Solubility ([5]; 95% ethanol) was 18.51 mg/mL (≈ 47.2 mM) and the Solubility ([5]; Absolute ethanol) was 23.53 mg/mL (≈ 59.9 mM). The Solubility ([5]; Acetone) was 128.97 mg/mL (≈ 329 mM), the Solubility ([5]; Acetonitrile) was 28.74 mg/mL (≈ 73.2 mM) and the Solubility ([5]; Chloroform) was 344.73 mg/mL (≈ 878 mM). It also gave a Solubility ([5]; Diethyl ether) of 6.31 mg/mL (≈ 16.1 mM), a Solubility ([5]; Ethyl acetate) of 40.08 mg/mL (≈ 102 mM) and a Solubility ([5]; Methanol) of 35.15 mg/mL (≈ 89.6 mM). For the same molecule, the Solubility ([5]; Propanol) was 25.55 mg/mL (≈ 65.1 mM).
